# Laboratory results from US11285142B2, “Compositions and methods for identifying and treating dystonia disorders” (DUKE UNIVERSITY, priority 2015, dated 2022).
# Assays:
# [1] = tested on: WT Torsin1a localization in Flp-In T-REx 293 cells expressing EGFP-WT Torsin1a; assay: Torsin1a localization assay in WT Torsin1a-expressing assay cell line; type: cell-based, human; conditions: WT Torsin1a-expressing cell line, dose response
# From the text: To develop an assay capable of detecting conditions that correct a dystonia cellular phenotype, two human cell lines were generated that stably expressed EGFP-tagged human wild-type Torsin 1A, or delta-E Torsin1a, from a single cDNA copy integrated at a defined genomic site (FIG. 1, panel 1).
# To limit variation in expression levels associated with random integration or transient expression, single copies of either WT or delta-E human TOR1A cDNAs with N-terminal EGFP fusions were inserted at the FRT site in Flp-In™ T-Rex™ 293 cells (Thermo Fisher Scientific #R780-07) via flippase recombinase-mediated cassette exchange according to the manufacturer's recommended protocols. This system includes an inducible expression feature (TetON) that avoids selective pressure for potential toxic effects of chronic expression of mutant proteins (FIG. 1, panel 1). […]
# This approach provides control over expression levels, avoiding the wide variation typically seen with random genomic integration or transient expression approaches. […] The mutant phenotype was measured as the percentage of cells with one or more EGFP puncta using automated high-content imaging analysis (see infra).
# Development and validation of the high-content image analysis and assay performance under high-throughput screening conditions is presented in FIG. 9. […] Automated exposure times for each plate were determined by setting a target saturation of 25% in channel 1 in wells containing tetracycline-induced delta-E cells. Detected cells were gated according to nuclear area, length-to-width ratio, and perimeter-to-area ratio. […] EGFP fluorescence (Ch2: excitation 488 nm; emission 509 nm) was used for puncta detection. Automated exposure times for each plate were determined by setting a target saturation of 35% in channel 2 in wells containing induced delta-E cells. […]
# [2] = tested on: cortico-striatal synapse LTD (striatal projection neurons); assay: Long-term depression at the cortico-striatal synapse, whole-cell electrophysiology in acute brain slices; type: cell-based, mouse
# Method: To directly test these predictions, whole-cell electrophysiology of striatal projection neurons was performed in acute brain slices to induce long-term depression in the presence of eIF2-alpha pathway-modulating drugs. Acute horizontal brain slices from the progeny of heterozygous ΔE Torsin1a knockin×homozygous Drd1a-tdTomato mice (age P15-21) were prepared largely as described in (Trusel et al., 2015, Cell Rep. 13, 1353-65). LTD was induced as in Trusel et al., 2015, with modifications.
# Heterozygous delGAG Torsin1a knockin mice (courtesy of Dr. W. Dauer, University of Michigan) were crossed with homozygous Drd1a-tdTomato mice (Jackson Labs) and the progeny was used at postnatal day 15-21 for experiments. […]
# Single slices were transferred to a recording chamber and superfused continuously with ACSF containing 50 μM picrotoxin at 32° C. and 3-4 mL/min. […] Evoked excitatory postsynaptic potentials (EPSPs) were recorded in the dorsolateral striatum, while stimulating every 30 seconds with a concentric bipolar electrode (FHC) in cortical layer V (see Trusel et al., Cell Reports, 2015). […] Baseline EPSPs were recorded for at least 10 min or until a stable baseline was reached. Data were acquired by pClamp v10 and analyzed using Clampfit v10.4, Origin v8.0, and GraphPad Prism v6.
Compound,"effect on WT Torsin1a localization (cells with punctate Torsin1a, in words) [1]","LTD in WT brain slices ([2]; pre-incubation 5 nM, WT mice)","long-term depression in brain slices of mice heterozygous for DYT1 knockin mutation (delGAG) ([2]; 20 μM, vs vehicle-treated slices)"
O=C(COc1ccc(Cl)cc1)NC1CCC(NC(=O)COc2ccc(Cl)cc2)CC1 (stereo not drawn) [ISRIB],dose-dependent increase,robustly inhibited LTD,
O=C(/C=C/c1ccccc1)NC(NC(=S)Nc1ccc(Cl)cc1)C(Cl)(Cl)Cl (stereo not drawn) [Sal-003],,,restored long-term depression
